For assay [1], the system named is SGK-1 dependent phosphorylation of GSK3beta in U2OS cells. In words: SGK-1 dependent phosphorylation of GSK3beta in U2OS cells overexpressing recombinant SGK-1 and GSK3beta. It is filed as cell-based, human. To be noted: U2OS cells, 6 h incubation, ratio of phosphorylated GSK3beta to total GSK3beta, read-out: IC50 values for inhibition of SGK-1 dependent phosphorylation of GSK3beta in U2OS cells.

For assay [2], the target named is recombinant human SGK-1 enzyme (Homo sapiens, UniProt O00141). In words: Enzymatic activity assay: SGK-1 substrate peptide phosphorylation (Caliper lab-chip mobility shift). The assay is classed as biochemical.
Where [3] appears, read: peptide substrate 1 μM, ATP 10 μM, 60 min at 37° C., read-out: IC50 values for inhibition of SGK-1 enzymatic activity.

Like-named read-outs stand apart in the source and are kept apart here.

Consider 50 molecules from patent publication US9718825B2, “N-(4-(azaindazol-6-yl)-phenyl)-sulfonamides and their use as pharmaceuticals” (priority 2013, dated 2017).

As a reminder, the IC50 is the concentration needed to halve the response being measured.

recombinant human SGK-1 enzyme, sequence (O00141 whole entry, looked up): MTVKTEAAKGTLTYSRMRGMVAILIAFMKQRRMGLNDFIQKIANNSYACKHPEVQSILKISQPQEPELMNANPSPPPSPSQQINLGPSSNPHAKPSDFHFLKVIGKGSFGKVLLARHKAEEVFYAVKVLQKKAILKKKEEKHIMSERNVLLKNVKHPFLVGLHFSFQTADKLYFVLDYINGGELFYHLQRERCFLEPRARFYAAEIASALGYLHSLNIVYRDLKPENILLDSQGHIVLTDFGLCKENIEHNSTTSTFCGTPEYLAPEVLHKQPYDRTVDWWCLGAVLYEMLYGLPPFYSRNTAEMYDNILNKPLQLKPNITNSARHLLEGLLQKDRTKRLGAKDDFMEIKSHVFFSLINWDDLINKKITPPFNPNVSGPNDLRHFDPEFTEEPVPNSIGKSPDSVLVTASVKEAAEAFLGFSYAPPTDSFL

With `COc1ccc(F)c(S(=O)(=O)Nc2ccc(-c3nc(C4CC4)c4cn[nH]c4n3)cc2)c1` [Example 147], the values for the IC50 in assay [1] and in assay [2] (setting [3]) were 0.059 µM and 0.0015 µM, respectively.
Taken in the same sequence, the figures for `N#Cc1ccc(Cl)cc1S(=O)(=O)Nc1ccc(-c2nc(OC3CNC3)c3cn[nH]c3n2)cc1` [Example 191] were 2.7 µM and 0.021 µM.
As to `Cc1nc(-c2ccc(NS(=O)(=O)c3cccc(Cl)c3C#N)cc2)nc2[nH]nc(N)c12` [Example 470], the IC50 in assay [1] was determined as 2 µM; in assay [2] (setting [3]), 0.011 µM.
As to `COc1ccc(Cl)c(S(=O)(=O)Nc2ccc(-c3nc(OC4CCNCC4F)c4c(C)n[nH]c4n3)cc2)c1` (stereo not shown) [Example 304], the IC50 came to 0.13 µM in assay [1] and 0.0023 µM in assay [2] (setting [3]).
For the molecule `Cc1nc(-c2ccc(NS(=O)(=O)C3=C(Cl)SCC(Cl)=C3)cc2)nc2[nH]nc(N)c12` [Example 175], the IC50 came to 0.52 µM in assay [1] and 0.019 µM in assay [2] (setting [3]).
`Cc1n[nH]c2nc(-c3ccc(NS(=O)(=O)c4cc(Cl)ccc4F)cc3)nc(OCCCN)c12` [Example 209]: the figures for the IC50 in assay [1] and in assay [2] (setting [3]) were 0.1 µM and less than 0.0015 µM, respectively.
Take `CC(C)(CO)COc1nc(-c2ccc(NS(=O)(=O)c3cc(Cl)ccc3F)cc2)nc2[nH]ncc12` [Example 57]: the IC50 in assay [1] worked out at 0.5 µM; in assay [2] (setting [3]) it was 0.0083 µM.
Consider `Cc1ccc(C#N)c(S(=O)(=O)Nc2ccc(-c3nc(OC4CCCNC4)c4c(C)n[nH]c4n3)cc2)c1` (stereo not shown) [Example 320], for which the IC50 was 0.057 µM in assay [1] and 0.0037 µM in assay [2] (setting [3]).
The corresponding values for `O=S(=O)(Nc1ccc(-c2nc(N3CCNCC3)c3cn[nH]c3n2)cc1)c1cc(Cl)ccc1F` [Example 16] are 0.95 µM and less than 0.0012 µM.
The corresponding values for `Cc1n[nH]c2nc(-c3ccc(NS(=O)(=O)c4cc(Cl)ccc4F)cc3)nc(OC3CCCNC3)c12` (stereo not shown) [Example 339] are 0.045 µM and 0.0013 µM.
Taken in the same sequence, the figures for `Cc1ccc(C#N)c(S(=O)(=O)Nc2ccc(-c3nc(OCCCN)c4c(C)n[nH]c4n3)cc2)c1` [Example 213] were 0.19 µM and 0.0064 µM.
For the molecule `Cc1ccc(F)c(S(=O)(=O)Nc2ccc(-c3ncc4c(N)n[nH]c4n3)cc2)c1` [Example 455], the IC50 is 0.39 µM in assay [1] and less than 0.0015 µM in assay [2] (setting [3]).
As for `COc1ccc(Cl)c(S(=O)(=O)Nc2ccc(-c3nc(OCCCC(N)=O)c4cn[nH]c4n3)cc2)c1` [Example 113], the IC50 in assay [1] was determined as 3.6 µM; in assay [2] (setting [3]), 0.003 µM.
As to `COCCc1nc(-c2ccc(NS(=O)(=O)c3cc(OC)ccc3C#N)cc2)nc2[nH]nc(N)c12` [Example 521], the results for the IC50 in assay [1] and in assay [2] (setting [3]) were 0.48 µM and 0.065 µM, respectively.
The corresponding values for `Cc1n[nH]c2nc(-c3ccc(NS(=O)(=O)c4cc(Cl)ccc4Cl)cc3)nc(OC3CCNCC3F)c12` (stereo not shown) [Example 303] are 0.057 µM and 0.0022 µM.
The corresponding values for `COc1ccc(F)c(S(=O)(=O)Nc2ccc(-c3nc(OCC(F)(F)F)c4c(N)n[nH]c4n3)cc2)c1` [Example 197] are 0.065 µM and 0.003 µM.
Regarding `Cc1ccc(F)c(S(=O)(=O)Nc2ccc(-c3nc(OC4CCC(O)CC4)c4cn[nH]c4n3)cc2)c1` (stereo not shown) [Example 92], the IC50 in assay [1] was found to be 0.18 µM; in assay [2] (setting [3]), 0.0021 µM.
Taken in the same sequence, the figures for `NCCCOc1nc(-c2ccc(NS(=O)(=O)c3cc(F)ccc3F)cc2)nc2[nH]ncc12` [Example 199] were 0.64 µM and 0.026 µM.
Consider `O=S(=O)(Nc1ccc(-c2nc(O[C@@H]3CCC[C@H]3O)c3cn[nH]c3n2)cc1)c1cc(Cl)ccc1F` [Example 87], for which the IC50 in assay [1] was found to be 4.1 µM; in assay [2] (setting [3]) it was 0.0068 µM.
Regarding `O=S(=O)(Nc1ccc(-c2nc(N3CC(CO)C3)c3cn[nH]c3n2)cc1F)c1cc(Cl)ccc1F` [Example 441], the IC50 came out at 11 µM in assay [1] and 0.021 µM in assay [2] (setting [3]).
The corresponding values for `COc1ccc(F)c(S(=O)(=O)Nc2ccc(-c3nc(OCC(C)C)c4c(N)n[nH]c4n3)cc2)c1` [Example 326] are 0.16 µM and 0.0091 µM.
The corresponding values for `COc1ccc(F)c(S(=O)(=O)Nc2ccc(-c3nc(OC4CCC(O)CC4)c4c(C)n[nH]c4n3)cc2)c1` (stereo not shown) [Example 129] are 0.17 µM and less than 0.0015 µM.
Take `NCCCOc1nc(-c2ccc(NS(=O)(=O)c3cccc(Cl)c3Cl)cc2)nc2[nH]ncc12` [Example 64]: the results for the IC50 in assay [1] and in assay [2] (setting [3]) were 0.56 µM and 0.0042 µM, respectively.
Taken in the same sequence, the figures for `Cc1ccc(F)c(S(=O)(=O)Nc2ccc(-c3nc(OCC4CNC(=O)C4)c4cn[nH]c4n3)cc2)c1` (stereo not shown) [Example 107] were 3.7 µM and 0.0025 µM.
Taken in the same sequence, the figures for `COCCc1nc(-c2ccc(NS(=O)(=O)c3cc(Cl)ccc3Cl)cc2)nc2[nH]nc(N)c12` [Example 505] were 0.62 µM and 0.047 µM.
The corresponding values for `O=S(=O)(Nc1ccc(-c2nc(OC3CNC3)c3cn[nH]c3n2)cc1)c1cc(Cl)ccc1Cl` [Example 190] are 0.12 µM and 0.0047 µM.
Consider `CC(C)COc1nc(-c2ccc(NS(=O)(=O)c3cc(Cl)sc3Cl)cc2)nc2[nH]nc(N)c12` [Example 330], for which the results for the IC50 in assay [1] and in assay [2] (setting [3]) were 0.23 µM and 0.1 µM, respectively.
Taken in the same sequence, the figures for `Cc1ccc(C#N)c(S(=O)(=O)Nc2ccc(-c3nc(OCC4CNC(=O)C4)c4cn[nH]c4n3)cc2)c1` (stereo not shown) [Example 125] were 12 µM and 0.002 µM.
The corresponding values for `COCCc1nc(-c2ccc(NS(=O)(=O)c3cc(Cl)c(F)cc3F)cc2)nc2[nH]nc(N)c12` [Example 501] are 0.45 µM and 0.04 µM.
With `Cc1n[nH]c2nc(-c3ccc(NS(=O)(=O)c4cc(Cl)ccc4Cl)cc3)ncc12` [Example 1, 2,5-Dichloro-N-[4-(3-methyl-1H-pyrazolo[3,4-d]pyrimidin-6-yl)-phenyl]-benzenesulfonamide], the IC50 was 0.83 µM in assay [1] (Homo sapiens) and less than 0.0012 µM in assay [2] (read-out: IC50 values for inhibition of SGK-1 enzymatic activity, peptide substrate 1 μM, ATP 10 μM, 60 min at 37° C.).
For the molecule `COc1ccc(F)c(S(=O)(=O)Nc2ccc(-c3nc(OC4CCCNC4)c4c(C)n[nH]c4n3)cc2)c1` (stereo not shown) [Example 294], the IC50 in assay [1] was determined as 0.27 µM; in assay [2] (setting [3]), 0.0035 µM.
On to `Cc1ccc(C#N)c(S(=O)(=O)Nc2ccc(-c3nc(OCC(C)C)c4c(N)n[nH]c4n3)cc2)c1` [Example 333], for which the IC50 stood at 1.3 µM in assay [1] and 0.014 µM in assay [2] (setting [3]).
Taken in the same sequence, the figures for `N#Cc1ccc(Cl)cc1S(=O)(=O)Nc1ccc(-c2nc(OCC(F)(F)F)c3c(N)n[nH]c3n2)cc1` [Example 196] were 0.33 µM and 0.0046 µM.
The corresponding values for `Cc1ccc(C#N)c(S(=O)(=O)Nc2ccc(-c3nc(C4CCC(O)C4)c4c(C)n[nH]c4n3)cc2)c1` (stereo not shown) [Example 97] are 1.6 µM and 0.002 µM.
For the molecule `COc1ccc(Cl)c(S(=O)(=O)Nc2ccc(-c3nc(OC4CCC(O)CC4)c4c(C)n[nH]c4n3)cc2)c1` (stereo not shown) [Example 102], the IC50 in assay [1] worked out at 0.38 µM; in assay [2] (setting [3]), 0.0017 µM.
Regarding `Cc1n[nH]c2nc(-c3ccc(NS(=O)(=O)c4cc(Cl)ccc4F)cc3)nc(OCC3CNCCO3)c12` (stereo not shown) [Example 291], the IC50 turned out to be 0.076 µM in assay [1] and 0.0025 µM in assay [2] (setting [3]).
Taken in the same sequence, the figures for `Nc1n[nH]c2nc(-c3ccc(NS(=O)(=O)c4cc(Cl)sc4Cl)cc3)ncc12` [Example 463] were 0.12 µM and 0.0025 µM.
In the case of `Cc1ccc(C#N)c(S(=O)(=O)Nc2ccc(-c3nc(OC4CNC4)c4cn[nH]c4n3)cc2)c1` [Example 188], the half-maximal inhibitory concentration (IC50) in assay [1] amounted to 0.9 µM; in assay [2] (setting [3]), 0.0034 µM.
Taken in the same sequence, the figures for `Cc1ccc(F)c(S(=O)(=O)Nc2ccc(-c3nc(OCCCC(N)=O)c4cn[nH]c4n3)cc2)c1` [Example 112] were 3.9 µM and 0.0033 µM.
The corresponding values for `O=S(=O)(Nc1ccc(-c2nc(OCC3CNCCO3)c3cn[nH]c3n2)cc1)c1cc(F)ccc1F` (stereo not shown) [Example 311] are 0.092 µM and 0.24 µM.
The corresponding values for `COc1nc(-c2ccc(NS(=O)(=O)c3cc(Cl)cc(F)c3F)cc2)nc2[nH]ncc12` [Example 178] are 0.8 µM and 0.35 µM.
On to `NCCCOc1nc(-c2ccc(NS(=O)(=O)c3cc(Cl)ccc3F)cc2)nc2[nH]ncc12` [Example 62], for which the IC50 in assay [1] is 0.45 µM; in assay [2] (setting [3]), less than 0.0012 µM.
As to `COc1ccc(Cl)c(S(=O)(=O)Nc2ccc(-c3nc(OCCCN)c4c(C)n[nH]c4n3)cc2)c1` [Example 212], the IC50 in assay [1] is 0.11 µM; in assay [2] (setting [3]), less than 0.0015 µM.
The corresponding values for `Cc1ccc(C#N)c(S(=O)(=O)Nc2ccc(-c3nc(OC4CCN(CCF)CC4)c4c(C)n[nH]c4n3)cc2)c1` [Example 343] are 0.068 µM and 0.0038 µM.
`Cc1ccc(F)c(S(=O)(=O)Nc2ccc(-c3nc(OC4CCCNC4)c4c(C)n[nH]c4n3)cc2)c1` (stereo not shown) [Example 338]: the IC50 is 0.044 µM in assay [1] and 0.0016 µM in assay [2] (setting [3]).
In the case of `COc1ccc(F)c(S(=O)(=O)Nc2ccc(-c3nc(OCCCN)c4cn[nH]c4n3)cc2)c1` [Example 219], the IC50 was 0.23 µM in assay [1] and less than 0.0015 µM in assay [2] (setting [3]).
Consider `Cc1ccc(F)c(S(=O)(=O)Nc2ccc(-c3nc(OCC4O[C@H](O)[C@H](O)[C@@H](O)[C@@H]4O)c4cn[nH]c4n3)cc2)c1` (stereo partly shown) [Example 123], for which the IC50 in assay [1] was 30 µM; in assay [2] (setting [3]) it was 0.0099 µM.
Regarding `COc1ccc(Cl)c(S(=O)(=O)Nc2ccc(-c3nc(OCC4CNCCO4)c4cn[nH]c4n3)cc2)c1` (stereo not shown) [Example 306], the figures for the IC50 in assay [1] and in assay [2] (setting [3]) were 0.019 µM and 0.0071 µM, respectively.
As to `Cc1nc(-c2ccc(NS(=O)(=O)c3cccc(F)c3C#N)cc2)nc2[nH]nc(N)c12` [Example 474], the figures for the IC50 in assay [1] and in assay [2] (setting [3]) were 11 µM and 0.012 µM, respectively.
The corresponding values for `Cc1ccc(C#N)cc1S(=O)(=O)Nc1ccc(-c2nc(C)c3c(N)n[nH]c3n2)cc1` [Example 473] are 8.2 µM and 0.032 µM.
